Experimental data from ChEMBL document CHEMBL1123182, “Synthesis and biological properties of chitin synthetase inhibitors resistant to cellular peptidases” (J Med Chem, 1986).
In brackets after ≈: the same amount, converted by molar mass.

How the values were obtained:
[1] = molecular target: Chitin synthase 1 (Candida albicans) (UniProt P23316); assay: Compound was tested for the inhibitory activity against chitin synthetase in the mixed membrane preparation from Candida albicans; assay type: cell membranes
Chain of Chitin synthase 1 (Candida albicans) (P23316 whole entry, looked up): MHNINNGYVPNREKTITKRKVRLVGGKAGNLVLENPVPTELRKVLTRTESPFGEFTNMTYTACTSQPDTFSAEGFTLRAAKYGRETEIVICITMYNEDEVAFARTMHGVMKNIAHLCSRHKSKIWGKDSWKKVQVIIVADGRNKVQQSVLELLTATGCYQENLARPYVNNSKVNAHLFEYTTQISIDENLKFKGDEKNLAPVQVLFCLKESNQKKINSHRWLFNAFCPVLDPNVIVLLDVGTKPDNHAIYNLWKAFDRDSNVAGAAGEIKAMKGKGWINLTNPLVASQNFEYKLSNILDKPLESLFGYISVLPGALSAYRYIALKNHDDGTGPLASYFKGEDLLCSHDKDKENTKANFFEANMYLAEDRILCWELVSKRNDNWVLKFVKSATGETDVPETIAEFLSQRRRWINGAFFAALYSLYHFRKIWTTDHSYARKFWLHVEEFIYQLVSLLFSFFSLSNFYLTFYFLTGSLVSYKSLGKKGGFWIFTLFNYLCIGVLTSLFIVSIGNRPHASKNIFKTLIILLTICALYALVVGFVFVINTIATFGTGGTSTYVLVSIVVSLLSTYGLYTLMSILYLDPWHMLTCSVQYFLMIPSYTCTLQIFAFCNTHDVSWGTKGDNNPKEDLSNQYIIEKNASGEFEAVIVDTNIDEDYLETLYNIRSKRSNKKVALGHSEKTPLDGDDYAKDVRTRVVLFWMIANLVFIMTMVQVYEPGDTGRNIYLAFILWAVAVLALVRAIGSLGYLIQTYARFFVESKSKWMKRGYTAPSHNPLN

[2] = tested on: Candida albicans; assay: Millimolar concentration of the lowest concentration that clearly inhibited the cell growth of Candida albicans was determined; assay type: functional
[3] = molecular target: T1, Chitin synthase 1 (Candida albicans, UniProt P23316); assay: Inhibition constant (KI) for the mmf chitin synthetase assay performed at constant inhibitor and varying substrate concentrations
T1 sequence (P23316 whole entry): as the sequence (P23316 whole entry, looked up) above

[4] = tested on: Candida albicans; assay: Concentration at which 50% of the Candida albicans cells were not viable; assay type: functional
[5] = tested on: Candida albicans; assay: Millimolar concentration at which some morphological effects in Candida albicans cells (about 5% of cells) was determined; assay type: functional; conditions: read-out: MEC
[6] = molecular target: Chitin synthase 1 (Candida albicans) (UniProt P23316); assay: Compound was tested for the inhibitory activity against chitin synthetase in the permeabilised cell assay
[7] = molecular target: T1, Chitin synthase 1; assay: Compound was tested for the inhibitory activity against chitin synthetase
[8] = tested on: Candida albicans; assay: Compound was tested for the inhibitory activity against Candida albicans cell growth; assay type: functional

| Structure (SMILES) | ID50 [1] [µM] | MIC [2] [µM] | Ki [3] [µM] | concentration killing 50% of cells [4] [mM] | minimal effective concentration [5] [µM] | ID50 [6] [µM] | Ki [7] [µM] | Viability [8] [mM] |
| --- | --- | --- | --- | --- | --- | --- | --- | --- |
| CCCCC(N)C(=O)NC(C(N)=O)[C@H]1O[C@@H](n2ccc(=O)[nH]c2=O)[C@H](O)[C@@H]1O (some centres not stated) | 200 | > 1000 | 246 | >4 | > 4000 | > 100 |  |  |
| N[C@@H](Cc1c[nH]c2ccccc12)C(=O)NC(C(=O)O)[C@H]1O[C@@H](n2ccc(=O)[nH]c2=O)[C@H](O)[C@@H]1O (some centres not stated) | > 100 | > 1000 | 1060 | >4 | 4000 | > 100 |  |  |
| CCCCC(NC)C(=O)NC(C(=O)O)[C@H]1O[C@@H](n2ccc(=O)[nH]c2=O)[C@H](O)[C@@H]1O (some centres not stated) | 120 | > 1000 | 218 | >4 | 20 | 97.5 |  |  |
| NC(Cc1ccccc1)C(=O)N/C(=C/c1ccccc1)C(=O)NC(C(=O)O)[C@H]1O[C@@H](n2ccc(=O)[nH]c2=O)[C@H](O)[C@@H]1O (some centres not stated) | 40 | > 2000 |  |  | > 2000 | 80 | 11.3 | >2 |
| CCCNC(CC(C)C)C(=O)NC(C(=O)O)[C@H]1O[C@@H](n2ccc(=O)[nH]c2=O)[C@H](O)[C@@H]1O (some centres not stated) | > 100 | 2500 (≈ 1110 µg/mL) |  |  | > 2500 | > 100 | 145 | >1 |
| CCCCCCCC(=O)NC(Cc1ccccc1)C(=O)NC(C(=O)NC(C(=O)O)[C@H]1O[C@@H](n2cc(C(=O)O)c(=O)[nH]c2=O)[C@H](O)[C@@H]1O)C(O)C(O)COC(N)=O (some centres not stated) | 47.5 | 1000 (≈ 795 µg/mL) |  |  | 1000 | 50 | 7.15 | >1 |
| NOC(Cc1ccccc1)C(=O)NC(C(=O)O)[C@H]1O[C@@H](n2ccc(=O)[nH]c2=O)[C@H](O)[C@@H]1O (some centres not stated) | 100 | 3000 (≈ 1350 µg/mL) | 978 | >3 | > 3000 | > 100 |  |  |
| NC(=O)OCC(O)C(O)C(N)C(=O)NC(C(=O)O)[C@H]1O[C@@H](n2cc(C(=O)O)c(=O)[nH]c2=O)[C@H](O)[C@@H]1O (some centres not stated) |  | 60 (≈ 31.3 µg/mL) | 0.59 | 1 | 20 | 1 |  |  |
